We go through two compounds from patent US8436187B2, “1-heterocyclylsulfonyl, 3-aminomethyl, 5- (hetero-) aryl substituted 1-H-pyrrole derivatives as acid secretion inhibitors” (Takeda Pharmaceutical Company Limited, priority 2005, dated 2013).

For orientation: IC50 means the concentration needed to halve the response being measured. A higher IC50 goes with a need for much substance.

In series [1] the target is T1, proton, potassium-adenosine triphosphatase (H+,K+-ATPase) (Sus scrofa, UniProt P19156).
T1 construct: The obtained microsomal fraction was used as a proton, potassium—adenosine triphosphatase standard product; from tissue; host or cells: swine stomach, gastric mucous membrane microsomal fraction
The experiment in a line: H+,K+-ATPase inhibitory activity test. It counts as biochemical. Particulars: swine gastric mucous membrane microsomal fraction; pH 6.5, 37° C. The method, then: According to the method [Biochim. Biophys. Acta, 728, 31 (1983)] of Wallmark et al., a gastric mucous membrane microsomal fraction was prepared from the stomach of swine. First, the stomach was removed, washed with tap water, immersed in 3 mol/L brine, and the surface of the mucous membrane was wiped with a paper towel. The gastric mucous membrane was detached, chopped, and homogenized in a 0.25 mol/L saccharose solution (pH 6.8) containing 1 mmol/L EDTA and 10 mmol/L tris-hydrochloric acid using polytron (Kinematica). The obtained homogenate was centrifuged at 20,000×g for 30 min and the supernatant was centrifuged at 100,000×g for 90 min. The precipitate was suspended in 0.25 mol/L saccharose solution, superimposed on a 0.25 mol/L saccharose solution containing 7.5% Ficoll, and centrifuged at 100,000×g for 5 hr. […]
To 40 μL of a 50 mmol/L HEPES-tris buffer (5 mmol/L magnesium chloride, 10 mmol/L potassium chloride, 10 […], pH=6.5) containing 2.5 μg/mL (based on the protein concentration) of the enzyme standard product was added a test compound (5 μL) dissolved in a 10% aqueous dimethyl sulfoxide solution, and the mixture was incubated at 37° C. for 30 min. […] After allowing to stand at room temperature for 15 min, the resulting reaction product of inorganic phosphorus with malachite green was colorimetrically determined at a wavelength of 610 nm. […]

The test system of series [2] is Human liver cancer-derived cell line HepG2. Description: intracellular ATP content in HepG2 cells (ATPLite). It counts as cell-based. The following applies: HepG2, culture for one day, relative value to control (without drug), n≧3, average. The method, then:
Human liver cancer-derived cell line HepG2 (ATCC No. HB-8065) was passaged using Dulbecco's Modified Eagle medium (DMEM; Invitrogen) containing 10% fetal bovine serum (FBS; TRACE SCIENTIFIC LTD.), 1 mmol/L sodium pyruvate (Invitrogen), 2 mmol/L L-glutamine (Invitrogen), 50 IU/mL penicillin (Invitrogen) and 50 μg/mL streptomycin (Invitrogen) at 5% CO2. 37° C. The test reagent was prepared with DMSO to 10 mM, and further diluted with DMEM medium containing 0.5% FBS, 1 mmol/L sodium pyruvate, 2 mmol/L L-glutamine, 50 IU/mL penicillin and 50 μg/mL streptomycin to a final concentration of DMSO of 0.1%. HepG2 (2×10^4 cells/well) was cultured on a 96 well white plate (Costar) with the test reagent at 5% CO2, 37° C. After culture for one day, the intracellular ATP content was measured using ATPLite™ (PerkinElmer Life Sciences). The results are shown in Table 24 (n≧3, average value±SD) as a relative value (%) to control (without addition of drug) at 30 μM.
In general terms: In ATP-based viability assays light output follows the ATP content of the culture.

T1 sequence (P19156 2-1034 limits assumed): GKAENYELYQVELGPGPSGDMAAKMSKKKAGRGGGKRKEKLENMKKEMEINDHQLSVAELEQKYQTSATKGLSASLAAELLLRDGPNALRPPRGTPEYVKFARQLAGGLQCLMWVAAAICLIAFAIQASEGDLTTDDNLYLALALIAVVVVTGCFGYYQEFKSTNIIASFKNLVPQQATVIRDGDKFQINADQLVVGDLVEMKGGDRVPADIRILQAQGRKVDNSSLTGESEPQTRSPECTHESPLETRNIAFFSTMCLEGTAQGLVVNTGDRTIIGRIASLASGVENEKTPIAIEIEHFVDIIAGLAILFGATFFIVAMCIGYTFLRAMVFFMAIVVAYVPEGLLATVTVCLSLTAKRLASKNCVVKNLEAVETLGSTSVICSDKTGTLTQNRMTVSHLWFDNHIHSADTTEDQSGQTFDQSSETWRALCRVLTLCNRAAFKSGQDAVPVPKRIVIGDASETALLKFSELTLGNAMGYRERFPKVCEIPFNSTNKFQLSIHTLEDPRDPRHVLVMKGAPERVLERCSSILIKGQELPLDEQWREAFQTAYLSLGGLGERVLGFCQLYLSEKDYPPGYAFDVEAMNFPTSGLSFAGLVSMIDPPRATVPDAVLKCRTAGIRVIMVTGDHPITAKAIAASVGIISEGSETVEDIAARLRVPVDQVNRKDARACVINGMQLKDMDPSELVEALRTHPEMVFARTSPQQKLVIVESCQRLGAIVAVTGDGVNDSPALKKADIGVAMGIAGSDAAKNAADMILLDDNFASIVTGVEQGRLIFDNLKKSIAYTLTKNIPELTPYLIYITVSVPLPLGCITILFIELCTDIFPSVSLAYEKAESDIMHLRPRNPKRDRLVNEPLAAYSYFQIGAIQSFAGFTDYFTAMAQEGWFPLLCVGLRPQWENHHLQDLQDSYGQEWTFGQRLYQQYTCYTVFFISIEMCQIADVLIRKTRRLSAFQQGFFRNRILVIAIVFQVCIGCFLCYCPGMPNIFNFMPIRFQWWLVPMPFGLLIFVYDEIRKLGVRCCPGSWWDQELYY
T1 sequence (P18434 whole entry partner): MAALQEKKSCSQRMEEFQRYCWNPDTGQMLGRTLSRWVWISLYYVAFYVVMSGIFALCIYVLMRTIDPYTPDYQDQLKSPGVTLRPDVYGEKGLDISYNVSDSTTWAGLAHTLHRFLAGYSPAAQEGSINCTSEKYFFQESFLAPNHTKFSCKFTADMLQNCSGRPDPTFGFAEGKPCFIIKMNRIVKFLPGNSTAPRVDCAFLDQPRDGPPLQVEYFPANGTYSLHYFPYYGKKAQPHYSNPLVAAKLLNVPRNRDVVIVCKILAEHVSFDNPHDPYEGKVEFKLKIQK

In the case of `CNCc1cc(-c2ccccc2)n(S(=O)(=O)c2ccc(C)nc2)c1.Cl.Cl` [Example 24, N-methyl-1-{1-[(6-methylpyridin-3-yl)sulfonyl]-5-phenyl-1H-pyrrol-3-yl}methanamine dihydrochloride], in series [1], the IC50 worked out at 34 nM. Further, the “ATP content (%, 30 μM)” value in series [2] worked out at 76.5%.

For `CNCc1cc(-c2ccc(Cl)cc2F)n(S(=O)(=O)c2cccnc2)c1.Cl.Cl` [Example 34, 1-[5-(4-chloro-2-fluorophenyl)-1-(pyridin-3-ylsulfonyl)-1H-pyrrol-3-yl]-N-methylmethanamine dihydrochloride], in series [1], the IC50 was determined as 8.9 nM. Besides, the “ATP content (%, 30 μM)” value in series [2] is recorded as 53.6%.
